Assay results as given in patent US7498292B2, “Combinatorial libraries of autoinducer analogs, autoinducer agonists and antagonists, and methods of use thereof” (The Research Foundation of State University of New York, priority 2002, dated 2009).
“Also recorded” adds a separate entry of the source.

Experiments:
LasR [1] = biological target: T1, LasR (Pseudomonas aeruginosa, UniProt P25084); experiment: lasI-gfp reporter antagonist (competition against AI1) assay, PAO-JP2 (plasI-LVAgfp); format: cell-based, P. aeruginosa; details: 100-fold excess concentration over AI1 (1 μM AI1)
T1 construct: endogenous in cells; host or cells: P. aeruginosa PAO-JP2 (lasI, rhlI) harboring plasI-LVAgfp
T1 sequence (P25084 whole entry): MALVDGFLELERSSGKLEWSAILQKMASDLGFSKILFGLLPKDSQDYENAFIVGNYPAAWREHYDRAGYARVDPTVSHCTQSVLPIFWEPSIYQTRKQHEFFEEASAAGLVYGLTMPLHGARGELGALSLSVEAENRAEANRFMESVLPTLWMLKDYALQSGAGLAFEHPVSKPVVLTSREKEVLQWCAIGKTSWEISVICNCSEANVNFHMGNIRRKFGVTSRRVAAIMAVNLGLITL
Description: (§1) P. aeruginosa strain PAO-JP2 (lasI, rhlI) (Rahme et al., Science 268:1899-1902 (1995), which is hereby incorporated by reference in its entirety) harboring plasI-LVAgfp (Pearson et al., Proc. Natl Acad. Sci. USA 91:197-201 (1994), which is hereby incorporated by reference in its entirety) was grown at 37° C. in LB with 300 μg/ml carbenicillin. For agonist assays, an overnight culture was diluted to an OD600 of 0.1 and transferred to wells of a 96-well plate on which test compounds had previously been added and dried. The final concentration of each analog tested was roughly 400 μM, although this is an overestimate due to purity issues. Cells were then incubated for 6 hours at 37° C. with vigorous shaking. GFP expression was detected with a Molecular Imager (BioRad) (488 nm excitation and 695 nm bandpass filter) and quantified with ImageQuant software. The OD600 of cultures was determined to normalize GFP expression to cell density.
The methods were the same as described in Example 2 (GFP Reporter Assay), except that 1 μM AI1 was added to each well in combination with the library compound. The fluorescence/OD600 of each compound competing against AI1 was reported relative to the fluorescence/OD600 of the positive control of AI1 alone, which was set to 1. When strain PAO-JP2 (prhlI-LVAgfp) was used, the positive control was 1 μM AI1 and 10 μM AI2. Eight compounds that inhibited reporter gene expression by greater than 50% were identified (see, e.g., FIG. 6).
(§2) Reporter strains were grown overnight in LB plus 300 μg/ml carbenicillin at 37° C. and diluted to an OD600 of 0.1. Following an incubation of 1 hour, 200 μl of cell culture was added to individual wells of a 96 well plate containing appropriate amount of test compound(s). Plates were incubated for 6 hours and then scanned for fluorescence emission with a Molecular Imager (488 nm excitation and 695 nm bandpass filter). Fluorescence was quantified with ImageQuant software.

Elastase B [2] = experiment: elastase (Elastin Congo Red) assay, strain PAO-JP2; format: cell-based, P. aeruginosa PAO-JP2; details: PAO-JP2, 5 μM AI1 and 10 μM AI2
Description: (§3) Pyocyanin, elastase, and biofilm were assayed as previously described (Smith et al., Chem. Biol. 10:81-89 (2003), which is hereby incorporated by reference in its entirety). Elastase activity produced by P. aeruginosa in the presence of AIs and competing 3-oxo-C12-D10 was determined by measuring breakdown of the substrate Elastin Congo Red.
(§4) For the elastase B assay, cells (PAO-JP2) were grown overnight in PTSB media (5% Peptone, 0.1% Tryptic Soy Broth) at 37° C., washed and diluted to an OD600 of 0.05, grown to mid-log phase, washed again, and re-suspended to an OD600 of 0.05. The culture was then added to test tubes containing test compound(s) and grown for 6 hours. Elastase B activity was quantified by incubation of 100 μl of filtered culture supernatant with 5 mg Elastin Congo Red substrate and 1 ml of 10 mM Tris pH 7.2, 1 mM CaCl2 for 6 hours at 37° C. with agitation. Elastase B activity is represented by the OD495 of the enzyme assay following reaction quenching with EDTA and centrifugation to remove unreacted substrate, divided by the OD600 of the cell culture. The same assay was run with strain PAO-1, however no exogenous autoinducers were added.

Elastase B [3] = experiment: elastase (Elastin Congo Red) assay, wild type strain PAO1; format: cell-based, P. aeruginosa PAO1; details: wild type PAO1, no exogenous autoinducers
Description: as §3, §4

pyocyanin [4] = experiment: pyocyanin assay, strain PAO-JP2; format: cell-based, P. aeruginosa PAO-JP2; details: PAO-JP2, 25 μM each of AI1 and AI2; not concentration dependent over the range tested
Description: (§5) For the pyocyanin assay, cells were grown overnight in LB then washed in fresh media and diluted to an OD600 of 0.05. This culture was grown for 3-4 hours to mid-log phase (OD600 of 0.3-0.5), then diluted to an OD600 of 0.05, and aliquoted to test tubes containing an appropriate amount of test compound(s). Following 18 hours of growth, pyocyanin was extracted from filtered culture supernatants and quantified using standard methods (Essar et al., J. Bacteriol. 172:884-900 (1990), which is hereby incorporated by reference in its entirety).

pyocyanin [5] = experiment: pyocyanin assay, wild type strain PAO1; format: cell-based, P. aeruginosa PAO1; details: wild type PAO1, no AIs added
Description: as §5

P. aeruginosa = experiment: cell growth in the reporter assay; format: cell-based; details: concentrations up to 400 μM
Description: Based on the above hypothesis, a competition assay of 2 and 3 against AI1, using strain PAO-JP2 (plasI-LVAgfp), was performed. […] It should be noted that this inhibition experiment was performed with competition against 1 μM AI1, a concentration typically produced by wild type P. aeruginosa (Pearson et al., Proc. Natl Acad. Sci. USA 92:1490-1494 (1995), which is hereby incorporated by reference in its entirety). […] It should also be noted that cell growth was not affected by the addition of 2 or 3 at concentrations up to 400 μM. Thus, it appears that compounds 2 and 3 act as specific inhibitors of QS controlled promoters. Compound 6 was also tested for its ability to compete against AI2, but no inhibition of the rhlI-gfp reporter gene was seen.

LasR [6] = biological target: T1, LasR; experiment: lasI-gfp reporter agonist assay, PAO-JP2 (plasI-LVAgfp); format: cell-based, P. aeruginosa; details: PAO-JP2 (plasI-LVAgfp), compounds made in solution phase, increasing concentrations (1, 100, 400 μM)
Description: Since this strain lacks the ability to produce natural AIs due to disruption of both AI synthase genes, activation of LasR relies on the addition of exogenous AI1. Expression of gfp (encoding green fluorescent protein) is under control of the LasR-AI1 inducible lasI promoter, allowing rapid screening for LasR agonists by measuring the level of GFP expression in their presence.
as §1, §2

LasR [7] = biological target: T1, LasR; experiment: lasB-lacZ reporter assay, E. coli MG4 (pKDT37); format: cell-based, P. aeruginosa; details: E. coli MG4 (pKDT37), 6 hour incubation
Description: E. coli strain MG4 (pKDT37) was grown overnight in Supplemented A media with 100 μg/mL ampicillin at 30° C. and diluted 1:100 in the same media. 1 mL of this culture was added to a test tube containing AI1 or 3-oxo-C12-D12 that had been previously aliquoted and dried. Following a 6 hour incubation at 30° C., β-galactosidase activity was determined using standard methods (Platt et al., Assays of the lac operon Enzymes In: Experiments in Molecular Genetics, Cold Spring Harbor Laboratory Press, Cold Spring Harbor, N.Y., pp. 352-355 (1972), which is hereby incorporated by reference in its entirety).
One of the new agonist structures identified from the library, D12, is 2-aminocyclohexanol (FIG. 5B). […] 3-oxo-C12-D12, containing the natural side chain, was synthesized in solution phase, and tested with both the lasI-gfp reporter as well as a lasB-lacZ reporter in Escherichia coli. E. coli strain MG4 harboring plasmid pKDT37 expresses lasR and contains a lacZ reporter gene controlled by a LasR-AI1 inducible lasB promoter (Passador et al., J. Bacteriol. 178:5995-6000 (1996), which is hereby incorporated by reference in its entirety). […] It also provides strong evidence that the agonist activity in P. aeruginosa is LasR dependent.

RhlR = biological target: T2, RhlR (Pseudomonas aeruginosa, UniProt P54292); details: 4-fold excess, in E. coli; cited from earlier work
T2 construct: an RhlR-AI2 controlled rhlI-gfp reporter, PAO-JP2 (prhlI-LVAgfp); endogenous in cells; host or cells: P. aeruginosa PAO-JP2 (prhlI-LVAgfp)
T2 sequence (P54292 whole entry): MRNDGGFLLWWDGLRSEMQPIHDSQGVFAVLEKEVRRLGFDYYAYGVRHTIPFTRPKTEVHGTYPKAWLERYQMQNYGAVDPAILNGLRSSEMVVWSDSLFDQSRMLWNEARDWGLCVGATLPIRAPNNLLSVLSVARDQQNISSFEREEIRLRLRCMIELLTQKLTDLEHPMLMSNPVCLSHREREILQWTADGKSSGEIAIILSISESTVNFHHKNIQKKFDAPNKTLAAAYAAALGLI

lasB promoter = details: 320 μM furanone competing with 0.1 μM AI1; cited from earlier work

Q: Which “inhibition of GFP expression (lasI-gfp)” value (LasR [1]) does the source give for `CCCCCCCCCC(=O)CC(=O)N[C@@H]1CCC[C@H]1O` (racemic) [Compound 2, N-(trans-2-hydroxycyclopentyl)-3-oxododecanamide] here?
A: The value was “approximately 70%”.

Q: And the “effect on elastase activity” value (Elastase B [2])?
A: Its value is “no significant effect”.

Q: What about the “effect on elastase activity” value (Elastase B [3]) of the same molecule?
A: Its value is “no significant effect”.

Q: What about the “reduction of pyocyanin expression” value (pyocyanin [4]) of the same molecule?
A: Its value is 50%.

Q: And the “effect on pyocyanin production” value (pyocyanin [5])?
A: Its value is “no significant effect”.

Q: And the “effect on cell growth” value (P. aeruginosa)?
A: Its value is “not affected”.

Q: For `CCCCCCCCCC(=O)CC(=O)N[C@H]1CCOC1=O` [AI1, N-(3-oxododecanoyl)-L-homoserine lactone, reference compound], which “agonist activity (induction of lasI-gfp reporter)” value (LasR [6]) is on record?
A: Its value is “activated; also recorded: Strong QS induction”.

Q: What about the “lasB-lacZ reporter activation (beta-galactosidase activity)” value (LasR [7]) of the same molecule?
A: The value was “activated”.

Q: And the “reduction of binding of AI2 to RhlR” value (RhlR)?
A: The value was 86%.

Q: For `O=C1C=C(Br)/C(=C/Br)O1` [furanone], which “inhibition (antagonist activity)” value (lasB promoter) is on record?
A: Its value is “Approximately 50%”.
